In data set [1] the test system is SNU423 hepatocellular carcinoma cells. In words: Alamar Blue cell growth inhibition, SNU423. It counts as cell-based. Put shortly: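 Cells at 50% confluence were treated for 48 h in triplicate with 0-10 μM compound or 0.1% DMSO vehicle. Alamar Blue was added at 1/10 volume for 2 h, and absorbance at 570 and 600 nm gave % growth via the manufacturer's extinction-coefficient formula relative to vehicle controls.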
A general note: Alamar Blue is a resazurin reagent that responds to reducing activity.

Data set [2] concerns UCI101 ovarian cancer cells (xenograft). The data set is described as follows: UCI101 xenograft in nude mice. In kind it is in vivo. As to conditions: mouse, in vivo. As to the method: (a) In vitro sensitivity of UCI101 cells toward three potential stilbene prodrugs, 5a-c, was tested in 96-well plates using Alamar Blue™ assays to determine cell growth inhibition. […] (b) 5b induces cell cycle change and apoptosis in UCI101 cells. Cells were incubated with 5b at 1, 3, 10 μM for 16 hours followed by PI staining and flow cytometry analysis. A subG0/1 population, representing apoptotic cells, appeared along with a decrease of the G1/G2 ratio after cells were treated with 3 μM 5b. Higher concentration (10 μM) of 5b completely killed cells, as was the case with stilbene 4a at […]. (c) Cells treated with stilbene 4a and 5b were stained with phospho-histone 3B, a mitotic marker. The positive signals of phospho-histone 3B were shown in green and nuclei were stained with DAPI in blue. […] (d) In vivo efficacy of 5b compared with stilbene 4a. Nude mice were injected with UCI101 ovarian cancer cells and treated with 7 doses of 5b,c or stilbene 4a every 2-3 days. Tumor volume was calculated and plotted against days.
We next tested whether 5b could be converted into stilbene 4a in circulation. […] Blood was collected at 20, 60 and 240 min after injection for spot check of stilbene 4a level in serum. […] The in vivo efficacy of 5b and 5c was compared to stilbene 4a in a pilot study using 5 mice in each group.

In data set [3] the test system is UCI101 ovarian cancer cells. The data set is described as follows: Western blot of signal transduction events, UCI101. In kind it is cell-based. The method in brief:
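UCI101 cells exposed to 0.1 μM compound for 0, 4, 8, 16 and 36 h, then harvested and analysed by Western blot. Probes covered G2-M regulators Cdc2, Cdc25c and BubR1, plus Akt phosphorylation.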
For orientation: In western blotting, separated proteins are transferred to a membrane and probed.

In data set [4] the test system is SKOV3 ovarian cancer cells. The data set is described as follows: Alamar Blue cell growth inhibition, SKOV3. In kind it is cell-based. Put shortly:
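SKOV3 cells at 50% confluence were treated 48 h with compounds, against 0.1% DMSO vehicle controls. Growth was read by Alamar Blue absorbance at 570 and 600 nm, with % growth inhibition from the manufacturer's extinction-coefficient formula. Each concentration was run in triplicate.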

The test system of data set [5] is HL60 leukemic cells (xenograft). In words: HL60 xenograft model in SCID mice. In kind it is in vivo. The method, then:
FIG. 20. Effect of stilbene 4a in vivo. (a) Induction of cell death in vivo by stilbene 4a. Tumor was harvested at 24 hours after treatment for TUNEL assay. (b) Histological sections of tumor. Tumor harvested at 24 hours after injection of stilbene 4a was analyzed by H & E staining. The area with lighter color is the necrotic region. (c) Tumor growth suppression. SCID mice were injected subcutaneously with 5×10^6 HL60 cells at each flank. Once the diameter of tumor reached 5 mm in diameter in majority of mice, mice were treated with 5 daily injection of stilbene 4a. Tumor volume was calculated by the long and short axis of tumor and plotted against days. Each group contains 5 mice.
HL60 leukemic cells were injected subcutaneously into ICR-scid mice (Taconic Inc.) on flank. After tumor becomes visible after 12 days, Mice will be treated with stilbene 4a by intravenous injection after dissolved in 10% DMSO in normal saline. For acute effect study, mice were sacrificed 24 hours after injection and tumor and bone marrow were harvested for histological staining and flow cytometry analysis. For long term effect study, stilbenes were injected intravenously from tail veins at 2 or 10 mg/kg for 5 consecutive days. Negative control mice were treated with 10% DMSO in normal saline and positive control mice were treated with Ara-C at 5 mg/kg. Tumor volume was measured twice a week for 4 weeks by the long and short axes of tumor. Volume was calculated by the formula ab^2/2, in which “a” represents the long axis and “b” the short axis of tumor. Mice were euthanized if the calculated tumor reached 10% of the body weight.

Usually IC50 stands for the point on the concentration scale where inhibition reaches its midpoint. Read a high IC50 as weaker potency in that assay.

Regarding `COc1cc(/C=C\c2ccc(OC)c(N)c2)cc(OC)c1` [4a, (Z)-5-[2-(3,5-Dimethoxy-phenyl)-vinyl]-2-methoxy-phenylamine], the “relative potency” value in data set [1] (SNU423) is given as “much more potent than the trans counterparts”. The “effective concentration, blocking cell proliferation” value in data set [1] (SNU423, 48 hours) was 0.03 µM. Besides, the mouse weight result in data set [2] is recorded as “did not show any significant change”. Also, in data set [3] (0.1 μM), the “phosphorylation of Stat3” value was “transient increase in phosphorylation at 4 and 8 hours”. The “phosphorylation of Cdc2 at Tyr15” value in data set [3] (0.1 μM, 16 hours) is “decreased dramatically”. Also, the “phosphorylation of Chk1” value in data set [3] (36 hours) was “increased uniquely at 36 hours”. In addition, the IC50 in data set [4] (Homo sapiens, SK-OV-3) lay within 50 to 100 nM. In addition, the “effective / active concentration” value in data set [4] (SKOV3, 48 hours) was 0.1 µM. The same compound gave a tumor growth suppression in data set [5] (10 mg/kg intravenously daily for 5 days, 12 days after the first injection) of 50%. In addition, the “percentage of apoptosis in tumor (TUNEL)” value stood at 22% in data set [5] (10 mg/kg intravenously, 24 hours); 62% in data set [5] (50 mg/kg intravenously, 24 hours); 58% in data set [5] (100 mg/kg intravenously, 24 hours). For the same compound, the “bone marrow TUNEL (acute marrow toxicity)” value in data set [5] (50 and 100 mg/kg, 24 hours) is given as “No increase in TUNEL positive cells was observed”.

The record behind these values is patent US7781580B2, “Stilbene derivatives as new cancer therapeutic agents” (Virginia Commonwealth University, priority 2007, dated 2010).
